For this assay, the system named is Bacillus subtilis ATCC 6633. Put plainly: Determination of antibiotic activity, agar well diffusion, zones of growth inhibition. It counts as cell-based. The conditions noted are these: nutrient 1.5% agar seeded with B. subtilis; 20 microlitres of test compound as a solution in ethanol (5-10 mg/L) per well; incubated overnight. The method, then:
A 3 ml overnight culture of Bacillus subtilis ATCC 6633 was grown at 30% C in nutrient broth (Difco). 200 ml of nutrient 1.5% agar (difco) at 46% C was seeded with 1 ml of the B.subtilis culture and poured immediately into petri dishes (25 ml/plate). After drying the plates in a laminar flow hood for 15 minutes, wells ([…] in diameter) were cut using a cork borer and 20 microlitres of the test compound as a solution in ethanol (5-10 mg/L) was added to each well. The plates were kept at 4% C for 5-7 hours to allow the compound to diffuse, and the plates were then incubated overnight at 30% C.
On the technique in general: Agar diffusion results depend on both activity and mobility in agar.

Consider `CCC(C)C1OC(=O)C(C)C(OC2CC(C)(OC)C(O)C(C)O2)C(C)C(OC2OC(C)CC(N(C)C)C2O)C(C)(O)CC(C)C(=O)C(C)C(O)C1(C)O` (centres unmarked) [(s-pent)-erythromycin A], for which the “zones of growth inhibition” value was “Clear zones of growth inhibition”. As for `COC1(C)CC(OC2C(C)C(=O)OC(C(C)C)C(C)(O)C(O)C(C)C(=O)C(C)CC(C)(O)C(OC3OC(C)CC(N(C)C)C3O)C2C)OC(C)C1O` (centres unmarked) [(i-but)-erythromycin A], the “zones of growth inhibition” value was “Clear zones of growth inhibition”.

These data come from patent US7807418B2, “Method for producing hybrid polyketide synthases” (Biotica Technology Limited, priority 1996, dated 2010).
